Assay results taken from EPA's ToxValDB 9.5 (doi:10.2903/j.efsa.2008.151r).

What was measured:
Canidae = settings: subchronic; duration: 90 days; oral; Dog Other; body weight
Oryctolagus sp. = settings: developmental; development
Tagia sp. = settings: acute; duration: 14 days; mortality
Daphnia magna = settings: chronic/long-term; duration: 21 days; reproduction
Lepomis macrochirus = settings: chronic/long-term; duration: 28 days; body weight
Typhlodromus pyri = assay: LR50; higher = less toxic; settings: not reported; mortality
[1] = reproduction developmental, reproduction

## CC(C)C(O)(c1ccc(OC(F)(F)F)cc1)c1cncnc1 (configuration not stated) [Flurprimidol]
Canidae
  NOAEL: 1.5 mg/kg-day
Oryctolagus sp.
  NOAEL: 9 mg/kg-day
Tagia sp.
  NOEC: 62.6 mg/kg
Rattus norvegicus; chronic, duration: 2 years, organ weight
  LOAEL: 1 mg/kg-day
Rattus norvegicus; developmental, development
  NOAEL: 10 mg/kg-day
Rattus norvegicus; [1]
  NOAEL: 1.8 mg/kg-day
  NOEL: 1.8 mg/kg-day
Rattus norvegicus; short-term, oral, diet, body weight
  NOEL: 1.62 mg/kg-day
Rattus norvegicus; subchronic, duration: 90 days, oral, F, organ weight
  NOAEL: 1.96 mg/kg-day
Daphnia magna
  NOEC: 1.7 mg/L
Lepomis macrochirus
  NOEC: 0.42 mg/L
Typhlodromus pyri
  LR50: > 29.6 g/ha
